Measurements published in the NIST ThermoML archive (doi:10.1021/je900442b).

Legend:
[1] = 101 kPa, Liquid
[2] = xn = mol fraction of the nth substance listed; settings: 101 kPa, Liquid

CCCCOC(C)=O [butyl ethanoate]
[1]
Settings	mass density [kg/m3]	speed of sound [m/s]
298.15 K	876.18	1190
303.15 K	871.27	1173
308.15 K	865.41	1150
313.15 K	860.46	1131

CO [methanol]
[1]
Settings	mass density [kg/m3]	speed of sound [m/s]
298.15 K	786.38	1109
303.15 K	781.65	1092
308.15 K	776.52	1074
313.15 K	772.15	1060

CO [methanol] + CCCCOC(C)=O
[2], x2 = 0
Settings	mass density [kg/m3]	speed of sound [m/s]
298.15 K	786.38	1109
303.15 K	781.65	1092
308.15 K	776.52	1074
313.15 K	772.15	1060

CO [methanol] + CC(=O)OC(C)(C)C
[2], x2 = 0
Settings	mass density [kg/m3]	speed of sound [m/s]
298.15 K	786.38	1109
303.15 K	781.65	1092
308.15 K	776.52	1074
313.15 K	772.15	1060

CC(=O)OC(C)(C)C [1,1-dimethylethyl ethanoate] + CO
[2]
Settings	mass density, 298.15 K [kg/m3]	mass density, 303.15 K [kg/m3]	mass density, 308.15 K [kg/m3]	mass density, 313.15 K [kg/m3]	speed of sound, 298.15 K [m/s]	speed of sound, 303.15 K [m/s]	speed of sound, 308.15 K [m/s]	speed of sound, 313.15 K [m/s]
x1 = 0.1004	806.42	801.36	796.06	791.34	1107	1090	1069	1055
x1 = 0.1997	819.95	814.66	809.27	804.29	1105	1089	1065	1052
x1 = 0.2996	829.79	824.37	818.91	813.75	1105	1089	1063	1051
x1 = 0.3916	836.73	831.21	825.7	820.41	1104	1088	1061	1049
x1 = 0.5003	843.12	837.52	831.98	826.57	1103	1087	1059	1048
x1 = 0.5988	847.72	842.05	836.48	831	1102	1086	1057	1046
x1 = 0.6994	851.57	845.85	840.26	834.72	1100	1085	1055	1045
x1 = 0.7985	854.72	848.96	843.36	837.77	1097	1083	1053	1043
x1 = 0.8992	857.43	851.65	846.04	840.4	1094	1080	1051	1041
x1 = 1	859.75	853.94	848.34	842.67	1091	1078	1049	1040

CC(=O)OC(C)(C)C [1,1-dimethylethyl ethanoate]
[1]
Settings	mass density [kg/m3]	speed of sound [m/s]
298.15 K	859.75	1091
303.15 K	853.94	1078
308.15 K	848.34	1049
313.15 K	842.67	1040

CCCCOC(C)=O [butyl ethanoate] + CO
[2]
Settings	mass density, 298.15 K [kg/m3]	mass density, 303.15 K [kg/m3]	mass density, 308.15 K [kg/m3]	mass density, 313.15 K [kg/m3]	speed of sound, 298.15 K [m/s]	speed of sound, 303.15 K [m/s]	speed of sound, 308.15 K [m/s]	speed of sound, 313.15 K [m/s]
x1 = 0.1004	810.58	805.75	800.39	795.84	1130	1112	1092	1076
x1 = 0.2329	831.49	826.61	821.09	816.38	1151	1132	1111	1093
x1 = 0.2996	839.18	834.29	828.66	823.89	1160	1140	1118	1100
x1 = 0.4008	848.46	843.52	837.84	833.02	1171	1151	1128	1109
x1 = 0.498	855.46	850.52	844.77	839.91	1179	1159	1136	1116
x1 = 0.5988	861.3	856.34	850.55	845.66	1185	1165	1141	1122
x1 = 0.6994	866.05	861.1	855.28	850.36	1189	1170	1145	1126
x1 = 0.7912	869.71	864.74	858.91	853.98	1191	1172	1148	1128
x1 = 0.8992	873.3	868.38	862.52	857.58	1191	1173	1149	1130
x1 = 1	876.18	871.27	865.41	860.46	1190	1173	1150	1131
